Reference: the CheMixHub viscosity set

Experiment: xn = mol fraction of the nth substance listed

C=CC#N + CCOC(C)=O
viscosity [mPa·s]
Conditions	298.15 K	303.15 K	308.15 K
101.3 kPa, x1 = 0.0974	–	0.3987	–
101.3 kPa, x1 = 0.201	–	0.394	–
101.3 kPa, x1 = 0.302	–	0.3883	–
101.3 kPa, x1 = 0.3997	–	0.3824	–
101.3 kPa, x1 = 0.4964	–	0.3739	–
101.3 kPa, x1 = 0.5946	–	0.3654	–
101.3 kPa, x1 = 0.6974	–	0.3546	–
101.3 kPa, x1 = 0.7978	–	0.3413	–
101.3 kPa, x1 = 0.9018	–	0.3263	–
101.33 kPa, x1 = 0.1002	0.442	0.419	0.398
101.33 kPa, x1 = 0.2025	0.429	0.403	0.383
101.33 kPa, x1 = 0.3034	0.42	0.397	0.377
101.33 kPa, x1 = 0.4047	0.408	0.387	0.369
101.33 kPa, x1 = 0.5034	0.4	0.379	0.361
101.33 kPa, x1 = 0.5994	0.39	0.368	0.352
101.33 kPa, x1 = 0.7007	0.381	0.364	0.351
101.33 kPa, x1 = 0.8021	0.369	0.358	0.344
101.33 kPa, x1 = 0.9003	0.358	0.349	0.328

Cn1ccnc1 + CCOC(C)=O
viscosity [mPa·s], 101 kPa
Conditions	298.15 K	308.15 K	318.15 K
x1 = 0.0518	0.4901	0.4509	0.417
x1 = 0.1042	0.5183	0.4734	0.4355
x1 = 0.2036	0.5796	0.524	0.4789
x1 = 0.3106	0.661	0.5919	0.5383
x1 = 0.4006	0.7306	0.6504	0.587
x1 = 0.4976	0.826	0.7281	0.6494
x1 = 0.6011	0.9571	0.8342	0.7376
x1 = 0.6961	1.09	0.9437	0.8289
x1 = 0.8012	1.266	1.082	0.9423
x1 = 0.9	1.468	1.245	1.074
x1 = 0.9496	1.57	1.331	1.144

C=CC#N + CN(C)C=O
303.15 K, 101.3 kPa
Conditions	viscosity [mPa·s]
x1 = 0.099	0.7313
x1 = 0.2027	0.6911
x1 = 0.2977	0.6444
x1 = 0.4005	0.5998
x1 = 0.497	0.5516
x1 = 0.5957	0.5028
x1 = 0.6984	0.4518
x1 = 0.798	0.4041
x1 = 0.895	0.3581

CCCCC(C)O (stereo unspecified) + CN(C)C=O
viscosity [mPa·s], 101 kPa
Conditions	x2 = 0.1088	x2 = 0.1532	x2 = 0.2402	x2 = 0.3448	x2 = 0.441	x2 = 0.5601	x2 = 0.6546	x2 = 0.7434	x2 = 0.843	x2 = 0.9374
298.15 K	3.26	3.03	2.7	2.41	2.17	1.87	1.63	1.4	1.17	0.97
303.15 K	2.67	2.49	2.23	1.99	1.79	1.56	1.39	1.23	1.05	0.87
308.15 K	2.19	2.01	1.8	1.61	1.47	1.3	1.18	1.06	0.93	0.8
313.15 K	1.7	1.53	1.36	1.23	1.13	1.03	0.96	0.89	0.81	0.73

O=C1CCCCCO1 + CNC(C)=O
viscosity [mPa·s], 101 kPa
Conditions	x2 = 0.0922	x2 = 0.2381	x2 = 0.3459	x2 = 0.4411	x2 = 0.5823	x2 = 0.6289	x2 = 0.6641	x2 = 0.7792	x2 = 0.9465
303.15 K	4.458	3.929	3.6	3.366	3.201	3.187	3.218	3.308	3.629
308.15 K	3.994	3.609	3.358	3.162	2.962	2.921	2.912	2.895	3.062
313.15 K	3.543	3.135	2.944	2.76	2.602	2.552	2.532	2.527	2.773
318.15 K	3.182	2.761	2.616	2.479	2.372	2.33	2.348	2.349	2.453

C=CC#N + CO
viscosity [mPa·s], 101.33 kPa
Conditions	x1 = 0.1021	x1 = 0.2197	x1 = 0.302	x1 = 0.4017	x1 = 0.5035	x1 = 0.6614	x1 = 0.6991	x1 = 0.7966	x1 = 0.8985
298.15 K	0.483	0.435	0.41	0.388	0.367	0.351	0.346	0.34	0.338
303.15 K	0.453	0.41	0.387	0.367	0.354	0.337	0.329	0.325	0.322
308.15 K	0.428	0.387	0.366	0.348	0.331	0.318	0.315	0.311	0.309

CC(=O)[O-].CCCC[NH3+] + CO
101.3 kPa
Conditions	viscosity [mPa·s]
293.15 K, x1 = 0.7993	256.5
298.15 K, x1 = 0.8988	312.5

CCC(C)(C)O + CO
298.15 K, 101.33 kPa
Conditions	viscosity [mPa·s]
x2 = 0.1504	3.673
x2 = 0.2963	3.295
x2 = 0.3807	2.941
x2 = 0.4164	2.789
x2 = 0.4914	2.41
x2 = 0.6011	1.88
x2 = 0.7145	1.404
x2 = 0.7989	1.074
x2 = 0.8988	0.788

CCCCC(C)O (stereo unspecified) + CO
298.15 K, 101.33 kPa
Conditions	viscosity [mPa·s]
x2 = 0.1062	3.747
x2 = 0.2053	3.337
x2 = 0.3128	2.892
x2 = 0.412	2.43
x2 = 0.5053	2.04
x2 = 0.6071	1.647
x2 = 0.703	1.315
x2 = 0.8146	0.9858
x2 = 0.9006	0.7707

Cc1ccc(C(C)C)cc1 + CO
293.15 K, 101 kPa
Conditions	viscosity [mPa·s]
x2 = 0.2	0.799
x2 = 0.4	0.793
x2 = 0.6	0.793
x2 = 0.7	0.774
x2 = 0.8	0.732

Cn1ccnc1 + CO
viscosity [mPa·s]
Conditions	298.15 K	308.15 K	318.15 K
100 kPa, x1 = 0.0511	0.6235	0.5549	0.4923
100 kPa, x1 = 0.1008	0.7071	0.6136	0.5376
100 kPa, x1 = 0.1961	0.8597	0.7399	0.6379
100 kPa, x1 = 0.279	0.9763	0.8372	0.7265
100 kPa, x1 = 0.3965	1.159	0.9854	0.849
100 kPa, x1 = 0.5013	1.298	1.098	0.942
100 kPa, x1 = 0.6101	1.429	1.203	1.029
100 kPa, x1 = 0.6941	1.514	1.277	1.088
100 kPa, x1 = 0.7955	1.607	1.348	1.151
100 kPa, x1 = 0.8414	1.645	1.377	1.174
100 kPa, x1 = 0.9501	1.727	1.445	1.23
101 kPa, x1 = 0.0502	–	0.5358	–
101 kPa, x1 = 0.1011	–	0.5959	–
101 kPa, x1 = 0.2	–	0.7153	–
101 kPa, x1 = 0.3006	–	0.8325	–
101 kPa, x1 = 0.4	–	0.9415	–
101 kPa, x1 = 0.4999	–	1.039	–
101 kPa, x1 = 0.5999	–	1.128	–
101 kPa, x1 = 0.7002	–	1.207	–
101 kPa, x1 = 0.7985	–	1.278	–
101 kPa, x1 = 0.8958	–	1.336	–
101 kPa, x1 = 0.9433	–	1.359	–

[2H]O[2H] + CO
298.15 K, 101 kPa
Conditions	viscosity [mPa·s]
x2 = 0.0449	1.386
x2 = 0.0748	1.535
x2 = 0.1437	1.783
x2 = 0.2044	1.893
x2 = 0.3143	1.872
x2 = 0.4238	1.711
